“Also recorded” adds a separate entry of the source.
Tests used:
Format in all cases: in vivo, mouse
DIO mice [1] = experiment: 10 d FSG67 treatment of DIO mice with Q-NMR assessment of adiposity
Method: Q-NMR assessment of adiposity. Following 10 days of FSG67 treatment or vehicle by ip administration, the DIO mice were euthanized and carcasses were stored at −80° C. Carcasses were thawed for Q-NMR analysis. Measurement of fat, lean, and water mass was performed using an EchoMRI-100™ (Echo Medical Systems, Houston, Tex.) in the Molecular and Comparative Pathobiology Phenotyping Core.
Since FSG67 increased fatty acid oxidation and reduced food intake in DIO mice, we next used Q-NMR analysis to measure lean, fat and water mass in FSG67 treated and control mice to determine the composition of the tissue loss with FSG67 treatment. In an additional chronic treatment experiment, 10 DIO mice were treated with FSG67 (5 mg/kg/d, ip) and 10 received vehicle for 10 days. The FSG67 treated mice lost 6.1±0.9 g (13.1±1.9%) while vehicle controls lost 1.1±0.4 g (2.3±0.8%) (p<0.0001. 2-way ANOVA). […] At the conclusion of the experiment, the FSG67 treated mice weighed 4.4 g less than the vehicle controls, which could be accounted for by the 4.0 g difference in fat mass. Thus, GPAT inhibition selectively reduces adiposity in DIO mice.

[2] = system: hypothalamic neuropeptide expression; experiment: Real-time RT-PCR of hypothalamic neuropeptides in lean mice after single dose; conditions: single 20 mg/kg
Method: (§1) For acute studies, 6 DIO or lean mice were treated with a single dose of FSG67 (20 mg/kg, i.p.) approximately 3 hrs past lights-on. Animal weights and food consumption were measured 18 h after treatment. Following euthanization, the hypothalmuses were harvested to measure orexigenic and anorexigenic neuropeptide gene expression. In the chronic studies, DIO mice, 4-10 animals per group, were treated daily with FSG67 (5 mg/kg, i.p.) or with RMPI vehicle for the days indicated. Body weight and food intake were measured daily. In one study, a cohort of mice was pair-fed with amounts consumed by the FSG67-treated animals and mice were monitored with indirect calorimetry (Oxymax Equal Flow System®, Columbus Instruments, Columbus, Ohio). Measurements of VO2 (ml/kg/hr) and VCO2 (ml/kg/hr) were performed and recorded every 15 min. The respiratory exchange ratio (RER) was calculated by Oxymax software, version 5.9, and is defined as ratio of VCO2 to VO2 33. After completion of the treatment course, animals were euthanized by CO2 inhalation 4 hrs following the final dose of FSG67. Tissues were harvested immediately for RNA extraction; serum was collected and analyzed for glucose, cholesterol, and triglyceride measurements (Bioanalytics, Gaithersburg, Md.). Fresh liver tissue was snap frozen in liquid N2, sectioned, and stained with hematoxylin and Oil Red O to visualize triglyceride droplets.
Real-time RT-PCR. Hypothalamus, liver, and WAT of DIO and lean mice were harvested and immediately frozen in liquid nitrogen. Total RNA was isolated and real-time quantitative RT-PCR was performed as previously described (13). Gene-specific primer pairs were designed using Primer3 software (http://www-genome.wi.mit.edu/cgi-bin/primer/primer3_www.cgi/). […]
Acute and chronic FSG67 treatment altered hypothalamic neuropeptide expression. Hypothalamic peptide expression was measured in the lean and DIO mice treated with a single dose of FSG67 (see FIG. 11) and in the chronically treated DIO mice (see FIG. 12) to further asses the mechanism responsible for reduced food intake. […]

DIO mice [3] = experiment: Chronic 20 d FSG67 treatment of DIO mice, reversibility of weight loss
Description: DIO and lean mouse models. All animal experimentation was done in accordance with guidelines on animal care and use as established by the Johns Hopkins University School of Medicine IACUC. DIO C57BL6J male mice were obtained from Jackson Laboratory (Bar Harbor, ME) and fed a synthetic diet comprised of 60% calories from fat, 20% from carbohydrate, and 20% from protein (5.2 kcal/g) post-weaning through the experimental procedures (D12492i, Research Diets, Inc., New Brunswick, N.J.). For lean animal studies, twelve-week old C57BL6J male mice (Jackson Laboratory, Bar Harbor, Me.) were fed rodent chow comprised of 13% calories from fat, 58% from carbohydrate, and 29% from protein (4.1 kcal/g) (Prolab RMH 2500, PMI Nutrition International Inc., Brentwood, Mo.). Mice were maintained in 12 hr light-dark cycle at 25° C. for 1 week for acclimatization prior to treatment. In all studies, FSG67 (FASgen, Inc., Baltimore, Md.) was dissolved in RPMI 1640 (Invitrogen, Carlsbad, Calif.).
as §1
The first chronic treatment experiment was designed to test if weight loss induced by FSG67 was reversible. Four DIO mice per group were treated with FSG67 or vehicle for 20 days. For the entire 32 d trial, weight and food consumption were recorded daily until the FSG67 treated animals regained their original weight. During FSG67 treatment (days 0-20), the mice lost 10.3±0.6% of their body mass while controls gained 4.0±0.5% (p<0.0001, 2-way ANOVA) (FIG. 12a). Average food consumption was reduced during FSG67 treatment (2.6±0.1 g/d, days 1-20) compared to vehicle controls (3.1±0.1 g) (p=0.0008, 2-way ANOVA) (FIG. 12b). Following cessation of treatment, food consumption increased in the FSG67 treatment group to an average of 3.5±0.1 g/d (days 21-32) representing a significant increase in food intake compared to vehicle controls 3.2±0.1 g/d (p=0.006, 2-way ANOVA). The FSG67 treated animals achieved their average pre-treatment weight 11 days following termination of treatment (FIG. 12a).

DIO mice [4] = experiment: Acute single-dose FSG67 treatment of DIO mice (body weight, food intake); conditions: single 20 mg/kg ip
Description: DIO and lean mouse models. All animal experimentation was done in accordance with guidelines on animal care and use as established by the Johns Hopkins University School of Medicine IACUC. DIO C57BL6J male mice were obtained from Jackson Laboratory (Bar Harbor, ME) and fed a synthetic diet comprised of 60% calories from fat, 20% from carbohydrate, and 20% from protein (5.2 kcal/g) post-weaning through the experimental procedures (D12492i, Research Diets, Inc., New Brunswick, N.J.). […]
For acute studies, 6 DIO or lean mice were treated with a single dose of FSG67 (20 mg/kg, i.p.) approximately 3 hrs past lights-on. Animal weights and food consumption were measured 18 h after treatment. […] Body weight and food intake were measured daily. In one study, a cohort of mice was pair-fed with amounts consumed by the FSG67-treated animals and mice were monitored with indirect calorimetry (Oxymax Equal Flow System®, Columbus Instruments, Columbus, Ohio). Measurements of VO2 (ml/kg/hr) and VCO2 (ml/kg/hr) were performed and recorded every 15 min. The respiratory exchange ratio (RER) was calculated by Oxymax software, version 5.9, and is defined as ratio of VCO2 to VO2 33. […] Tissues were harvested immediately for RNA extraction; serum was collected and analyzed for glucose, cholesterol, and triglyceride measurements (Bioanalytics, Gaithersburg, Md.). […]

SMILES: CCCCCCCCCS(=O)(=O)Nc1ccccc1C(=O)O [Compound 15g, 2-(Nonylsulfonamido)benzoic acid]
- reduction in fat mass compared to vehicle controls (Q-NMR) (DIO mice [1]; 5 mg/kg ip daily, 10 d): 4.0 g
- lean and water mass (Q-NMR) (DIO mice [1]; 5 mg/kg ip daily, 10 d, listed as FSG67, 5 mg/kg): no significant change; also recorded: unaffected
- final weight difference to vehicle controls (DIO mice [1]; conclusion of 10 d experiment): 4.4 g
- hypothalamic NPY expression ([2]; compared to fasted mice): significantly reduced
- hypothalamic AGRP expression ([2]; compared to vehicle control and fasted mice, listed as FSG67, 20 mg/kg): substantially diminished
- hypothalamic POMC and CART expression ([2]; listed as FSG67, 20 mg/kg): not affected; also recorded: unaffected
- time to pre-treatment weight following termination of treatment (DIO mice [3]): 11 days
- body mass lost during treatment (DIO mice [3]; 5 mg/kg ip daily, 20 d): 10.3±0.6%
- food consumption during treatment (DIO mice [3]; 5 mg/kg ip daily, days 1-20): 2.6 ± 0.1 g/day
- food consumption following cessation of treatment (DIO mice [3]; days 21-32): 3.5 ± 0.1 g/day
- day of return to original weight (DIO mice [3]; treatment terminated at day 20): 32 days
- food consumption (DIO mice [4]): 0.5 ± 0.1 g
- food consumption, % of vehicle control (DIO mice [4]): 41.6%

— patent US20120083471A1, “Novel Compounds, Pharmaceutical Compositions Containing Same, Methods of Use for Same, and Methods for Preparing Same” (priority 2008, published 2012)
